Assay results published in publication PMC9701179, “New tricyclic systems as photosensitizers towards triple negative breast cancer cells” (Archives of Pharmacal Research, 2022).
Like-named read-outs stand apart in the source and are kept apart here.

Columns and labels:
MDA-MB-231 cells [1] = assay: Intracellular ROS production (CM-H2DCFDA) under UVA; type: cell-based, human; conditions: MDA-MB-231, 25 µM, 90 min, UVA 2.0 J/cm^2; antimycin 3 µM positive control
Procedure: The production of ROS was measured in MDA-MB-231 cells (10^4 per well) grown for 24 h in a 96-well plate in RPMI medium without phenol red (Merk, Germany). Cells were then washed with PBS and loaded with 10 μM 5-(and-6)-chloromethyl-2′,7′-dichlorodihydrofluorescein diacetate acetyl ester (CM–H2DCFDA) (Molecular Probes-Invitrogen, Eugene, OR) for 45 min, in the dark. Afterwards, cells were washed with PBS and incubated with tested compounds (25 µM) for 90 min and after that exposed to UVA light (2.0 J/cm^2). Fluorescence increase was estimated utilizing the wavelengths of 485 nm (excitation) and 527 nm (emission) in a VICTOR X3 (PerkinElmer, USA) plate reader. Antimycin (3 μM, Merk), a potent inhibitor of Complex III in the electron transport chain, was used as positive control.
ROS production under light (UVA, 2.0 J/cm^2) was evaluated in MDA-MB-231 cell samples treated with increasing concentrations of tested compounds or antimycin, a potent inhibitor of Complex III of mitochondria electron chain, used as a positive control under the same experimental conditions (Fig. 4).
Fig. 4 Cellular ROS production (A) and total thiol redox state (B). A Effect of UVA activated tested compounds (25 µM) or antimycin (3 µM) on hydrogen peroxide formation in MDA-MB-231 cancer cells. B Sulfhydryl content in MDA-MB-231 cancer cells incubated for 24 h with UVA activated tested compounds. The sulfhydryl group amount was determined by the DTNB assay. Error bars indicate S.D

MDA-MB-231 cells [2] = assay: Mitochondrial membrane potential (Mito-ID kit); type: cell-based, human; conditions: MDA-MB-231, UVA 2.0 J/cm^2; CCCP positive control
Procedure: The ΔΨ was assayed using the Mito-ID® Membrane Potential Kit according to the manufacturer’s instructions (Enzo Life Sciences, Farmingdale, NY, USA) as previously described. Briefly, MDA-MB-231 cells (8 × 10^3 per well) were seeded in 96-well plates; after 24 h, cells were washed with PBS and loaded with Mito-ID Detection Reagent for 30 min at 37 °C in the dark. Afterwards, cells were incubated with increasing concentrations of tested compounds for 90 min and after that exposed to UVA light (2.0 J/cm^2). CCCP (Carbonyl cyanide 3-chlorophenyl-hydrazone) was used as positive control. Fluorescence intensity was estimated using a VICTOR X3 (PerkinElmer, USA) plate reader at 490 (excitation) and 590 nm (emission).
Induction of ROS production can in turn prompt the collapse of mitochondrial membrane potential as well as loss of mitochondrial integrity and functioning. […] MDA-MB-231 TNBC cells were treated with tested compounds upon UVA irradiation and the percentage of cells with hypopolarized mitochondrial membrane potential was determined fluorometrically by means of the Mito-ID® Membrane Potential Kit.
Fig. 5 Effects on mitochondrial membrane potential (A) and cell death induction (B) in human breast MDA-MB-231 cancer cells. A Cells were treated with 7h and 8e and stained with TMRM (10 nM). Fluorescence was estimated at 490 nm (excitation) and 590 nm (emission). Data are the means of five independent experiments. Error bars indicate S.D. * P < 0.05. B Cells were treated with concentrations of 7h and 8e equal to IC50 for 24 h and stained with the fluorescent dyes Hoechst 33342 and PI

MDA-MB-231 cells [3] = assay: MTT cytotoxicity/photocytotoxicity test on human TNBC MDA-MB-231 cells; type: cell-based; conditions: Homo sapiens
Procedure: The irradiation device used for the irradiation of cell cultures during the assays was a black box equipped with two Philips UVA lamps with an irradiance of 17 mW cm^−2 and a centered emission peak at 365 nm; UVA irradiance was measured using a Waldmann Variocontrol radiometer, equipped with a UVA sensor. The box was maintained at room temperature inside with a fan and the multiwell plates were placed onto a water-refrigerated metal block.
Human triple negative (TNBC) breast MDA-MB-231 carcinoma cells were obtained from American Type Culture Collection (ATCC, Rockville, MD, USA). Human embryonic kidney HEK293 cells were obtained from the European Collection of Cell Cultures (ECACC, Salisbury, UK). Cell lines were maintained in the logarithmic phase at 37 °C in a 5% CO2 atmosphere using the following culture media containing 10% foetal calf serum (Euroclone, Milan, Italy), antibiotics (50 units/mL penicillin and 50 μg/mL streptomycin) and 2 mM l-glutamine: (i) RPMI-1640 medium (Euroclone, Milan, Italy) for MDA-MB-231 4 cells; (ii) DMEM (Euroclone, Milan, Italy) for HEK293 cells.
Cells (5–8 × 10^3 cells/well, dependent upon the growth characteristics of the cell line) were seeded in 96-well microplates in growth medium (100 μL). After 24 h, the medium was removed and replaced with a fresh one containing the compound to be studied at the appropriate concentration. Triplicate cultures were established for each treatment. For photocytotoxicity studies, after 1 h of incubation the medium was replaced with PBS and cells were treated with 2.0 J cm^−2 of UVA light. After irradiation, PBS was replaced with complete proliferation media. For pre-irradiation studies, instead, compounds in PBS were irradiated with 2.0 J cm^−2 of UVA light and subsequently cells were treated with pre-irradiated solutions. Following 24 h, each well was treated with 10 μL of a 5 mg/mL MTT saline solution, and following 5 h of incubation, 100 μL of a sodium dodecyl sulfate (SDS) solution in HCl 0.01 M were added. After an overnight incubation, cell growth inhibition was detected by measuring the absorbance of each well at 570 nm using a Bio-Rad 680 microplate reader. Mean absorbance for each drug dose was expressed as a percentage of the control untreated well absorbance and plotted against drug concentration. IC50 values, the drug concentrations that reduce the mean absorbance at 570 nm to 50% of those in the untreated control wells, were calculated by the four-parameter logistic (4-PL) model. Evaluation was based on means from at least four independent experiments.
The new synthetized pyrrolo[1,2-h][1,7]naphthyridinones 7 and pyrido[2,3-c]pyrrolo[1,2-a]azepinones 8 were screened for their cytotoxicity (in the dark) and photocitotoxicity (upon UVA light irradiation at 2.0 J/cm^2) profile on human TNBC cells, MDA-MB-231. The cytotoxicity/photocytotoxicity parameters, expressed in terms of IC50 values obtained by MTT test after 24 h of drug-exposure, are listed in Table 2.

Q: Which “Cellular ROS production (hydrogen peroxide formation)” value (MDA-MB-231 cells [1]) does the source give for `CCOC(=O)c1ccc2n1CCc1cc(S(=O)(=O)c3ccccc3)c(=O)n(C)c1-2` [Compound 7e, Ethyl 3-(benzenesulfonyl)-1-methyl-2-oxo-1,2,5,6-tetrahydropyrrolo[1,2-h][1,7]naphthyridine-8-carboxylate] here?
A: Its value is “hardly effective in inducing any ROS basal level production increase”.

Q: What about the “Cells with depolarized mitochondria (mitochondrial membrane potential)” value (MDA-MB-231 cells [2]) of the same compound?
A: The value was “did not induce a substantial change in mitochondrial membrane potential”.

Q: And the IC50 (MDA-MB-231 cells [3]; MDA-MB-231, in the dark, 1 h pre-treatment, recovered for total 24 h, read-out: Dark IC50 (µM) ± S.D)?
A: Its IC50 is greater than 50 µM.

Q: And the IC50 (MDA-MB-231 cells [3]; light or radiation study, MDA-MB-231, 1 h pre-treatment, UVA 2.0 J/cm^2, recovered for total 24 h, read-out: UVA (2.0 J/cm^2) IC50 (µM) ± S.D)?
A: The IC50 was greater than 50 µM.
